Test results taken from US7655650B2, “Oxadiazine derivatives” (Syngenta Corporation, priority 1992, dated 2010).

Assays:
Assay type in all cases: in vivo
Heliothis virescens = test: Example B6: Activity against Heliothis virescens; conditions: 144 h, 400 ppm spray on young soyabean plants, 10 caterpillars in the first stage, evaluated after 6 days, read-out: percentage reduction in population and in feeding damage (% activity)
Description: Young soyabean plants are sprayed with an aqueous emulsion spray mixture comprising 400 ppm of active ingredient. After the spray coating has dried on, the plants are populated with 10 Heliothis virescens caterpillars in the first stage and transferred to a plastic container. The test is evaluated after 6 days. The percentage reduction in population and in feeding damage (% activity) are determined by comparing the number of dead caterpillars and the feeding damage between the treated and untreated plants.

Aphis craccivora = test: Example B2: Activity against Aphis craccivora; conditions: 400 ppm spray on infected pea seedlings, 20° C., evaluated after 3 and 6 days, read-out: percentage reduction in population (% activity)
Description: Pea seedlings are infected with Aphis craccivora, subsequently sprayed with a spray mixture comprising 400 ppm of active ingredient and then incubated at 20° C. The test is evaluated after 3 and 6 days. The percentage reduction in population (% activity) is determined by comparing the number of dead aphids on the treated and untreated plants.

Myzus persicae = test: Example B8: Activity against Myzus persicae; conditions: 400 ppm spray on infected pea seedlings, 20°, evaluated after 3 and 6 days, read-out: percentage reduction in population (% activity)
Description: Pea seedlings are infected with Myzus persicae, subsequently sprayed with a spray mixture comprising 400 ppm of active ingredient and then incubated at 20°. The test is evaluated after 3 and 6 days. The percentage reduction in population (% activity) is determined by comparing the number of dead aphids on the treated and untreated plants.

Nephotettix cincticeps = test: Example B10: Activity against Nephotettix cincticeps; conditions: 504 h, 400 ppm spray on rice plants, larvae in the 2nd and 3rd stages, evaluated after 21 days, read-out: percentage reduction in population (% activity)
Description: Rice plants are sprayed with an aqueous emulsion spray mixture comprising 400 ppm of active ingredient. After the spray coating has dried on, the plants are populated with larvae in the 2nd and 3rd stages. The test is evaluated after 21 days. The percentage reduction in population (% activity) is determined by comparing the number of surviving leaf hoppers on the treated and untreated, plants.

Diabrotica balteata = test: Example B5: Activity against Diabrotica balteata; conditions: 144 h, 400 ppm spray on maize seedlings, 10 larvae in the second stage, evaluated after 6 days, read-out: percentage reduction in population (% activity)
Description: Maize seedlings are sprayed with an aqueous emulsion spray mixture comprising 400 ppm of active ingredient. After the spray coating has dried on, the seedlings are populated with 10 Diabrotica balteata larvae in the second stage and transferred to a plastic container. The test is evaluated after 6 days. The percentage reduction in population (% activity) is determined by comparing the number of dead larvae between the treated and untreated plants.

Nilaparvata lugens = test: Example B12: Activity against Nilaparvata lugens; conditions: 504 h, 400 ppm spray on rice plants, larvae in the 2nd and 3rd stages, evaluated after 21 days, read-out: percentage reduction in population (% activity)
Description: Rice plants are sprayed with an aqueous emulsion spray mixture comprising 400 ppm of active ingredient. After the spray coating has dried on, the plants are populated with plant hopper larvae in the 2nd and 3rd stages. The test is evaluated after 21 days. The percentage reduction in population (% activity) is determined by comparing the number of surviving plant hoppers on the treated and untreated plants.

Anthonomus grandis = test: Example B1: Activity against Anthonomus grandis; conditions: 72 h, 400 ppm spray on young cotton plants, 10 adult beetles, evaluated after 3 days, read-out: percentage reduction in population and percentage reduction in feeding damage (% activity)
Description: Young cotton plants are sprayed with an aqueous emulsion spray mixture comprising 400 ppm of active ingredient. After the spray coating has dried on, the plants are populated with 10 adult Anthonomus grandis and placed into a plastic container. 3 days later, the test is evaluated. The percentage reduction in population and the percentage reduction in feeding damage (% activity) are determined by comparing the number of dead beetles and the feeding damage between the treated and the untreated plants.

Ctenocephalides felis = test: Example B4: Activity against Ctenocephalides felis (systemic); conditions: 5 ppm in blood at 37°, fed through membrane, 20 adult fleas, evaluated after 24 and 48 hours, read-out: percentage reduction in population (% activity)
Description: Twenty adult fleas of the species Ctenocephalides felis are placed into a flat, round cage, both sides of which are covered with gauze. A container whose bottom is sealed with a Parafilm membrane is placed onto the cage. In the container there is blood which comprises 5 ppm of active ingredient and which is constantly heated at 37°. The fleas take up blood through the membrane. The test is evaluated 24 and 48 hours after setting up the experiment The percentage reduction in population (% activity) is determined by comparing the number of dead fleas when using treated and untreated blood. 24 hours after the treatment, the blood is replaced by fresh blood which has also been treated.

CN1COCN(Cc2ccc(Cl)nc2)/C1=N/[N+](=O)[O-] [Compound No. 1.2, 5-(2-Chloropyrid-5-ylmethyl)-3-methyl-4-nitroiminoperhydro-1,3,5-oxadiazine]
> 80%: inhibition at 400 ppm (Heliothis virescens) | inhibition at 400 ppm (Aphis craccivora) | inhibition at 400 ppm (Myzus persicae) | inhibition at 400 ppm (Nephotettix cincticeps) | inhibition at 400 ppm (Diabrotica balteata) | inhibition at 400 ppm (Nilaparvata lugens) | inhibition at 400 ppm (Anthonomus grandis) | inhibition at 5 ppm (Ctenocephalides felis)
